Reference: publication PMC5981863 (ACS infectious diseases, 2017)
Values after ≈ are worked out from the molar mass of the structure shown.

Experiments:
E. coli DH10B = test: MIC, agar dilution and liquid microdilution; format: cell-based, Escherichia coli
[1] = system: E. coli DH10B pBCSK, blaADC-7; test: MIC, agar dilution and liquid microdilution; format: cell-based, Escherichia coli
[2] = system: E. coli DH10B pBCSK, blaADC-7, R340A; test: MIC, agar dilution and liquid microdilution; format: cell-based, Escherichia coli
[3] = system: E. coli DH10B pBCSK, blaADC-7, R340K; test: MIC, agar dilution and liquid microdilution; format: cell-based, Escherichia coli
[4] = system: E. coli DH10B pBCSK, blaADC-7, N213A; test: MIC, agar dilution and liquid microdilution; format: cell-based, Escherichia coli
A. baumannii M9 = test: MIC, agar dilution and liquid microdilution; format: cell-based
ADC-7/R340A mutant = test: Competition kinetics with nitrocefin; format: biochemical, Acinetobacter baumannii
ADC-7 = test: Thermal denaturation by circular dichroism; format: binding, Acinetobacter baumannii; settings: ADC-7 alone Tm ≈61 °C
[5] = MIC of CAZ in combination with 4 μg/mL BATSI compound

Row | Compound | MIC (E. coli DH10B; Escherichia coli, DH10B) [µg/mL] | MIC ([1]; Escherichia coli) [µg/mL] | MIC ([2]; Escherichia coli) [µg/mL] | MIC ([3]; Escherichia coli) [µg/mL] | MIC ([4]; Escherichia coli) [µg/mL] | MIC (A. baumannii M9; Acinetobacter baumannii, M9) [µg/mL] | MIC (A. baumannii M9; CAZ alone) [µg/mL] | MIC (E. coli DH10B; [5]) [µg/mL] | MIC [1, 5] [µg/mL] | MIC [2, 5] [µg/mL] | MIC [3, 5] [µg/mL] | MIC [4, 5] [µg/mL] | MIC (A. baumannii M9; [5]) [µg/mL] | Ki (ADC-7/R340A mutant) [nM] | Tm of ADC-7/compound complex (ADC-7) [°C]
1 | CC(C)(O/N=C(\C(=O)N[C@@H]1C(=O)N2C(C(=O)[O-])=C(C[n+]3ccccc3)CS[C@H]12)c1csc(N)n1)C(=O)O [CAZ, ceftazidime, reference compound] | 1 (≈ 1.83 µM) | 64 (≈ 117 µM) | 32 (≈ 58.5 µM) | 32 (≈ 58.5 µM) | 32 (≈ 58.5 µM) | > 64 | >64 |  |  |  |  |  |  |  | 
2 | O=S(=O)(NCB(O)O)c1ccc(-c2nn[nH]n2)cc1 [CR157] |  |  |  |  |  |  |  | 0.5 | 1 | 0.5 | 1 | 2 | 8 |  | 
3 | O=S(=O)(NCB(O)O)c1ccc(-c2nn[nH]n2)nc1 [CR161] |  |  |  |  |  |  |  | 0.5 | 0.5 | 1 | 1 | 2 |  |  | 
4 | O=C(O)c1cccc(CS(=O)(=O)NCB(O)O)c1 [CR167] |  |  |  |  |  |  |  | 0.5 | 1 | 2 | 4 | 4 | 16 |  | 
5 | O=S(=O)(NCB(O)O)c1ccc(-c2nn[nH]n2)cc1C(F)(F)F [CR192] |  |  |  |  |  |  |  | 0.5 | 2 | 0.5 | 2 | 1 | 8 | 8.3 | ~70
6 | O=C(Cc1cccs1)NCB(O)O [achiral cephalothin, reference compound] |  |  |  |  |  |  |  | 0.5 | 32 | 32 | 32 | 32 | 32 |  | 
